In publication PMC11219744, “Renal excretion of 1,2-dihydroxynaphthalene (DHN) in firefighting instructors after exposure to polycyclic aromatic hydrocarbons (PAHs) during live fire training” (Scientific Reports, 2024):
“And” between values parts separate entries of the source, which are not always exact repeats. Identical values can stand only once. Like-named read-outs stand apart in the source and are kept apart here.

Tests used:
[1] = Time to peak and initial elimination half-life of the urinary biomarkers (first-order model, linear mixed effects); format: in vivo, human; settings: for half-life: male, human, in vivo, initial elimination half-life after peak excretion, urine, read-out: Estimated half-life, mean (converted); for Time to peak, median / Time to peak, range: urinary excretion, time after onset of exposure
Source text: The initial half-life of each biomarker was estimated using statistical methods described previously[6],[32]. In short, we estimated the first-order elimination rate constant λ based on the model in Eq. (1):1 C=C0+B·e^λ·t+∈
Here, C is the creatinine-adjusted concentration in urine after the uptake phase, C0 is the baseline concentration before training, B is the difference from peak to baseline concentration, t is the time since peak concentration, and ϵ is the error term. […] Using package nlme[33] for the statistical environment R[34],[35], the model was fitted as a linear mixed effects model for the log concentration difference to baseline ln(C–C0) as the outcome. The model was fitted simultaneously for all data and included fixed effects for biomarker, time since peak, and their interaction term. It used random slopes for time since peak and random intercepts for […]. Errors were assumed to be autocorrelated according to an AR(1) process.

[2] = Human biomonitoring: urinary excretion of PAH metabolites (GC–MS/MS, creatinine-normalised) in firefighting instructors before and after live fire training; settings: for Median increase in morning urine after exposure (sampling 9) vs. before (sampling 1) / concentration at 6 h: male, human, in vivo; for Median increase in morning urine after exposure (sampling 9) vs. before (sampling 1): 18 h; for Median increase from baseline (sample 2) to peak excretion: peak: sample 5 for 1-PYR, sample 4 otherwise; for concentration at 6 h: Concentration in urine, sampling 6, corresponding to end of shift
Protocol: All study participants (n = 6) were male firefighting instructors from Germany. […] Before the start of the study, all subjects declared that they were non-smokers. Tattoo bearers were excluded before the start of the study as tattoo ink can be a potential source of polycyclic aromatic hydrocarbons. The authors declare that this research was conducted in accordance with the relevant regulations, including the Declaration of Helsinki. All subjects gave written informed consent after being informed about the study by the investigator.
Exposure to combustion products took place in several training sessions that simulated live fire conditions by burning a defined number of uncoated chipboards in an overseas container. The container was located in a hall with exhaust air purification. […] In addition, all subjects wore long-sleeved undergarments under their turnout gear. Only laundered clothing and cleaned equipment (e.g. helmets, masks) were used. The donning and doffing of clothing and protective equipment took place only in a smoke-free, well-ventilated area. Immediately after taking off the firefighters' gloves after training, the participants put on nitrile gloves for further undressing. After removing the helmet, flash hood and SCBA face shield, the participants put on particle filtering half masks (FFP3) to remove contaminated turnout jackets and trousers. After a break for rehydration and cool down still wearing their undergarments, the participants went to shower. […] The interval between two consecutive training sessions for each subject was at least six days. […] In this way, each subject was biomonitored at each of the five training sessions. All additional (unscheduled) urinations between the predefined times were also collected in separate containers and pooled afterwards with the next scheduled sample. […] A total of 270 samples were to be collected using this procedure for all participants and five training sessions of each individual. Subjects completed a questionnaire for each sampling period to account for possible pre-exposure or concurrent exposure to PAHs from sources other than the fire simulation unit, such as occupational exposure to combustion products, exposure to tobacco smoke (active/passive) and barbecue activities, and consumption of smoked or charbroiled foods.
In brief, the analytes were extracted by liquid–liquid extraction with n-hexane after enzymatic hydrolysis of the urine samples with ß-glucuronidase/arylsulfatase (isolated from helix pomatia) and derivatised by silylation with N-trimethylsilyl-N-methyl trifluoroacetamide afterwards. […] All standards were obtained from LGC-Standards, Wesel, Germany.
DHN in urine was determined referring to a method described in detail by Klotz et al.[29]. […] External calibration with internal standardisation by an isotopically labelled analogue of the target compound was done by analysis of pool urine samples spiked with the glucuronides of DHN and D6-1,2-dihydroxynaphthalene (internal standard) before enzymatic hydrolysis. Both standards are not commercially available and were obtained as a gift from the Institute of Occupational, Social and Environmental Medicine at the University of Erlangen-Nuremberg (Germany). A detailed description of the synthesis of the compounds is given by[26]. […] Up to now, there is no external quality assessment scheme available for DHN.
Urinary creatinine was analysed in the Institute of Clinical Chemistry and Laboratory Medicine of University Medical Centre of the Johannes Gutenberg University Mainz using a photometrical assay based on the method of[30].

[3] = cited from earlier work
[4] = sampling 1, morning urine on training day before exposure (mean −4.2 h from start of exposure), n = 30
[5] = sampling 1, morning urine on training day before exposure, n = 30
[6] = sampling 2, before training (mean −0.4 h), n = 28
[7] = sampling 2, before training, n = 28
[8] = sampling 3, at the end of the training session (mean 2.0 h after start of exposure), n = 26
[9] = sampling 3, at the end of the training session, n = 26
[10] = sampling 4, 1 h after the end of training (mean 3.0 h after start of exposure), n = 25
[11] = sampling 4, 1 h after the end of training, n = 25
[12] = sampling 5, 3 h after the end of training (mean 5.2 h after start of exposure), n = 22
[13] = sampling 5, 3 h after the end of training, n = 22
[14] = sampling 6, 6 h after the end of training (mean 8.1 h after start of exposure), n = 23
[15] = sampling 6, 6 h after the end of training, n = 23
[16] = sampling 7, 9 h after the end of training (mean […] after start of exposure), n = 27
[17] = sampling 7, 9 h after the end of training, n = 27
[18] = sampling 8, right before bedtime (mean 12.7 h after start of exposure), n = 27
[19] = sampling 8, right before bedtime, n = 27
[20] = sampling 9, morning urine the next day, 18 h after training (mean 20.1 h after start of exposure), n = 29
[21] = sampling 9, morning urine the next day, n = 29
[22] = 58 urine samples before onset of exposure, not creatinine-normalised

Structure (SMILES): Oc1ccc2ccc3cccc4ccc1c2c34 [1-PYR, 1-hydroxypyrene]
- half-life [1]: 7.7 h
- Time to peak, median [1]: 5.3 h
- Time to peak, range [1]: 2.5 to 13.9 h
- Median increase in morning urine after exposure (sampling 9) vs. before (sampling 1) [2]: 2.8 fold
- Median increase from baseline (sample 2) to peak excretion [2]: 7.9 fold
- Maximum excretion pre exposure ([2]; pre exposure samplings): 0.22 µg/g creatinine
- Concentration in urine, median [2, 4]: 0.06 µg/g creatinine
- Concentration in urine, IQR [2, 5]: 0.04–0.08 µg/g creatinine
- Concentration in urine, range [2, 5]: 0.03–0.15 µg/g creatinine
- Concentration in urine, median [2, 6]: 0.05 µg/g creatinine
- Concentration in urine, IQR [2, 7]: 0.03–0.06 µg/g creatinine
- Concentration in urine, median [2, 8]: 0.06 µg/g creatinine
- Concentration in urine, IQR [2, 9]: 0.04–0.08 µg/g creatinine
- Concentration in urine, median [2, 10]: 0.20 µg/g creatinine
- Concentration in urine, IQR [2, 11]: 0.14–0.31 µg/g creatinine
- Concentration in urine, range [2, 11]: 0.06–1.61 µg/g creatinine
- Concentration in urine, median [2, 12]: 0.40 µg/g creatinine
- Concentration in urine, IQR [2, 13]: 0.21–0.59 µg/g creatinine
- Concentration in urine, range [2, 13]: 0.16–1.88 µg/g creatinine
- Concentration in urine, median [2, 14]: 0.29 µg/g creatinine
- Concentration in urine, IQR [2, 15]: 0.19–0.42 µg/g creatinine
- Concentration in urine, range [2, 15]: 0.10–1.93 µg/g creatinine
- Concentration in urine, median [2, 16]: 0.25 µg/g creatinine
- Concentration in urine, IQR [2, 17]: 0.16–0.30 µg/g creatinine
- Concentration in urine, range [2, 17]: 0.08–1.56 µg/g creatinine
- Concentration in urine, median [2, 18]: 0.21 µg/g creatinine
- Concentration in urine, IQR [2, 19]: 0.12–0.33 µg/g creatinine
- Concentration in urine, range [2, 19]: 0.06–1.06 µg/g creatinine
- Concentration in urine, median [2, 20]: 0.17 µg/g creatinine
- Concentration in urine, IQR [2, 21]: 0.10–0.25 µg/g creatinine
- Concentration in urine, range [2, 21]: 0.05–0.63 µg/g creatinine

Structure (SMILES): Oc1ccc2ccccc2c1O [DHN, 1,2-dihydroxynaphthalene]
- Urinary level, median ([3]; 20 non-smoking subjects): 4.6 µg/L
- Urinary concentration, GM (GSD) ([3]; coke oven workers, n = 28, China): 452 (2.28) µg/l
- Urinary concentration, geometric mean ([3]; control group, n = 22 office and hospital workers including three smokers, China): 38.8 µg/L
- Urinary concentration, median ([3]; n = 9 smokers): 17.1 µg/L
- Urinary concentration, range ([3]; n = 9 smokers): 1.9 to 62 µg/L
- Urinary concentration, median (range) ([3]; wood impregnation workers, n = 9, Germany): 88.3 (10.8–1497) µg/l
- Urinary concentration, median (range) ([3]; workers at converter infeed, n = 26, Germany): 945.4 (22.0–1902.6) µg/l
- Urinary concentration, median (range) ([3]; workers in the abrasive industry, post-shift Monday, n = 10, Germany): 3944 (114–42,066) µg/l
- Urinary concentration, median (range) ([3]; workers in the abrasive industry, post-shift Thursday, n = 10, Germany): 11,162 (337–51,809) µg/l
- Time of peak excretion after the end of the training session ([1]; by scheduled sampling time): 1 h
- Time required to reach pre exposure levels again ([1]; from median maximum 134.15 µg/g crea., about 5 half-lives, monophasic elimination assumed): approximately 33 h
- half-life [1]: 6.6 h
- Time to peak, median [1]: 3.3 h
- Time to peak, range [1]: 2.5 to 19.0 h
- Concentration in urine, median [2, 22]: 2.89 µg/L
- Concentration in urine, range [2, 22]: 0.6 to 19.4 µg/L
- Baseline concentration in urine, total range ([2]; before training, samplings 1 and 2 together): 0.9–10.2 µg/g crea. and 0.87–10.19 µg/g crea.
- Urinary peak concentration, median (range) ([2]; firefighters after live fire training, sampling 4, n = 6, Germany): 246.7 (18.2–1084.2) µg/l
- Median increase in morning urine after exposure (sampling 9) vs. before (sampling 1) [2]: 12.9 fold
- concentration at 6 h ([2]; median): 71.3 ng/mL
- concentration at 6 h ([2]; range): 16.6 to 674 ng/mL
- Median increase from baseline (sample 2) to peak excretion [2]: 41 fold
- Individual maximum concentration in urine ([2]; post exposure, sampling 4): 380.4 µg/g crea.
- Concentration in urine, median [2, 4]: 2.23 µg/g creatinine
- Concentration in urine, IQR [2, 5]: 1.43–4.18 µg/g creatinine
- Concentration in urine, range [2, 5]: 0.87–10.19 µg/g creatinine
- Concentration in urine, median [2, 6]: 3.3 µg/g creatinine and 3.32 µg/g creatinine
- Concentration in urine, IQR [2, 7]: 2.03–4.80 µg/g creatinine
- Concentration in urine, range [2, 7]: 1.41–9.04 µg/g creatinine
- Concentration in urine, median [2, 8]: 31.60 µg/g creatinine
- Concentration in urine, IQR [2, 9]: 25.79–52.81 µg/g creatinine
- Concentration in urine, range [2, 9]: 10.68–166.80 µg/g creatinine
- Concentration in urine, median [2, 10]: 134.2 µg/g creatinine and 134.15 µg/g creatinine
- Concentration in urine, IQR [2, 11]: 92.94–164.89 µg/g creatinine
- Concentration in urine, range [2, 11]: 43.38–380.43 µg/g creatinine
- Concentration in urine, median [2, 12]: 131.46 µg/g creatinine
- Concentration in urine, IQR [2, 13]: 104.83–207.75 µg/g creatinine
- Concentration in urine, range [2, 13]: 78.66–375.77 µg/g creatinine
- Concentration in urine, median [2, 14]: 86.01 µg/g creatinine
- Concentration in urine, IQR [2, 15]: 67.60–137.94 µg/g creatinine
- Concentration in urine, range [2, 15]: 46.21–284.21 µg/g creatinine
- Concentration in urine, median [2, 16]: 51.58 µg/g creatinine
- Concentration in urine, IQR [2, 17]: 40.81–76.67 µg/g creatinine
- Concentration in urine, range [2, 17]: 21.95–159.57 µg/g creatinine
- Concentration in urine, median [2, 18]: 46.02 µg/g creatinine
- Concentration in urine, IQR [2, 19]: 30.70–63.89 µg/g creatinine
- Concentration in urine, range [2, 19]: 19.82–154.82 µg/g creatinine
- Concentration in urine, median [2, 20]: 27.1 µg/g creatinine and 27.08 µg/g creatinine
- Concentration in urine, IQR [2, 21]: 20.03–40.28 µg/g creatinine
- Concentration in urine, range [2, 21]: 15.69–139.47 µg/g creatinine
